Assay results published in patent US4276890A, “Tobacco smoking inhibitor” (priority 1979, dated 1981).
Converted amounts (≈) assume the structure as drawn. “And” between values parts separate entries of the source, which are not always exact repeats. Equal entries are not always repeated. “Also recorded” adds a separate entry of the source.

Columns and labels:
[1] = test system: cigarette consumption of smokers; assay: Multi-day dose course in individual smokers (Example 4, Table 1): tobacco consumption; format: in vivo, human (volunteer smokers)
Text: Smoking behavior is complex and includes cigarette, pipe and cigar smoking. Both from the standpoint of habituation and of health hazard, cigarette smoking is considered to be the most serious. It is contemplated that the treatment method described herein will be effective to inhibit all forms of smoking behavior and combinations thereof, involving the consumption of tobacco. For convenience, the ensuing discussion focuses on cigarette smoking, as exemplary of smoking behavior in general. Tobacco consumption is a function the number of cigarettes smoked and the proportion of each cigarette smoked. Reduction of consumption is measured by comparison with a smoker's pretreatment consumption rate. All data used herein are expressed as percent reduction, i.e., the differential between pretreatment and current smoking consumption rate divided by the pretreatment rate, times 100. All rates are calculated to take into account both the number of cigarettes smoked and the proportion of each smoked.
Extensive tests were made of individual smokers of varied age, smoking history, and sex in a course of treatment extending over several days. All smokers tested in this experiment were initially naive as to the purpose of the test or the expected effect. The subjects volunteered for the tests after being told that the material is safe according to FDA food additive standards and that they were to report all observed effects. So far as can be ascertained none of the subjects deduced the true purpose of the test until the effects were made obvious by substantial involuntary reduction in their smoking activities. Subjects were interviewed before the dosage course to insure that they were in general good health. Interviews were also conducted during and after the dosage course, at least every third day to ascertain what physiological or psychological effects were experienced. No side effects were noted during or after the treatment cycle.
Several individuals from the original test series volunteered for additional testing. In all such instances, a treatment free period of three weeks to three months was interposed between tests.
Subjects are identified by number. The original, naive tests are identified by the letter "a" following the subjects' number. Subsequent test series are identified sequentially by "b" and "c", where appropriate.
All subjects except nos. 10 and 11 received ethyl maltol in a chewing gum with instructions to chew for at least 10 minutes, and preferably 15 minutes. Subjects 10 and 11 received ethyl maltol in tablet form, rather than by sustained release in the mouth.

[2] = test system: smoking habit of smokers; assay: Single dose response in smokers (Example 3); format: in vivo, human (volunteer smokers)
Procedure: The effect of a single dose of ethyl maltol in the range from 100 mg to 1,200 mg was tested on thirty volunteer subjects who were smokers. As a control, an additional ten smokers were given an inert placebo, a similar candy or gum laced with ascorbic acid and citric acid to impart a medicinal flavor. […] The threshold of effectiveness varied with the individual's age, sex, weight, smoking history, and habits. […] These studies established the existence of a critical threshold dose level below which the effectiveness of ethyl maltol as a tobacco smoking inhibitor was not observed. In subsequent tests where the gamma pyrone was administered in a dose series extending over several days, daily doses of less than about 300 mg per day were similarly ineffective.

[3] = test system: smoking level of smokers; assay: Daily rates of smoking reduction (Example 5, Table II; comparison with placebo groups of Example 6); format: in vivo, human (volunteer smokers); conditions: for reduction in smoking level: 1,000 mg/day, eight slowly dissolving lozenges, individual subjects
Procedure: Subjects who participated had prior knowledge of the purported effect of the treatment. They were asked to test a new dosage form and told that a "cure" was not necessarily to be expected in this test. The dosage was 1,000 mg/day of ethyl maltol divided over eight pieces of slowly dissolving lozenges, made essentially as described supra. Subjects administered their own dosage without supervision. The tests were designed and supervised by the inventor but carried out by intermediaries, in order to maximize the opportunity for objective evaluation of symptoms, and to minimize any possibility of investigative bias influencing the results. (True double blind tests are impossible because the gamma pyrone flavor is distinctive and virtually impossible to mask). Subjects were all in generally good health, and were selected to represent a variety of ages, occupational stresses, and personal life styles.
Levels of tobacco consumption were calculated taking into account the number of cigarettes smoked and the proportions smoked. They are expressed as percent reduction from the pretest smoking level.
During the same time period that the studies in Example Five were conducted, two groups of smokers were administered a placebo dosage comprising the same basic candy lozenge, but lacking any gamma pyrone and containing ascorbic and citric acids to impart a sharp, medicinal flavor.
This conclusion is further substantiated by analysis of variance. For such analysis, individual tests that were either incomplete or which presented unusual circumstances were discarded. Results from placebo groups one and two were pooled. The average percent reduction in smoking is plotted in FIG. 1, for the treatment and the placebo groups.

[4] = Solubility; format: physicochemical
Procedure: The troches were made essentially by conventional candy making techniques. The polysaccharide and starch were first dry blended to substantial uniformity. About 3-4% by weight of water was added to the dry powder to form a thick paste. This paste was then heated to produce a uniform viscous melt. Maltol or ethyl maltol were added to this melt as saturated solutions in boiling water. The water solubility of the gamma pyrones is somewhat limited. For example, one gram of ethyl maltol requires 6 ml of water at 100° C. to dissolve completely. Since the water content of the mixture must be kept low, the amount of ethyl maltol which can be incorporated is about 3-4%, and preferably about 1% by weight of the troche. […] Alternatively, the entire process can be carried out in a suitable pressure apparatus.

[5] = test system: hexobarbital-induced sleeping time; conditions: 300 to 500 mg per kg; cited from earlier work
[6] = test system: mice; conditions: cited from earlier work
[7] = chewing gum, 600 mg/day, 1 day, subject 8b
[8] = chewing gum, 800 mg/day, course: 1a 16 days, 2b 20, 7b 20, 8a 1, 9a 5 days
[9] = chewing gum, 900 mg/day, 12 days, subject 2a
[10] = chewing gum, 1200 mg/day, 8 days, subject 4a
[11] = chewing gum, 1500 mg/day, 25 days, subject 3a
[12] = tablets, 1000 mg/day, 15 days, subject 11a
[13] = tablets, 1200 mg/day, 10 days, subject 10a

## CCc1occc(=O)c1O [ethyl maltol, 3-hydroxy-2-ethyl-4-pyrone]
[1]; chewing gum, 600 mg/day, 1 day, subject 6a, for following 2 wks.
  Cigarette Consumption per day at end (in words): Reduced to 1/2 pack for following
[1]; [7]
  Change in Smoking Pattern per cig.: Less than 1/2
  Cigarette Consumption per day at end: 7 cigarettes per day
  Percentage Reduction: 40-50%
[1]; chewing gum, 700 mg/day, course: 2c 30 days, 3b 8, 5a 14, 7c 40 days
  Change in Smoking Pattern per cig.: Approx. 1/2; also recorded: Varied; also recorded: Less than 3/4; also recorded: Reduced to 2-3 puffs
[1]; [8]
  Change in Smoking Pattern per cig.: Approx. 1/2; also recorded: Less than 1/2; also recorded: Less than 3/4; also recorded: Reduced to light-up
  Percentage Reduction: 70-80% and 41-68% and 75% and 75-80% and 70%
[1]; [9]
  Cigarette Consumption per day at end: 0 cigarettes per day
  Percentage Reduction: 100%
[1]; chewing gum, 1000 mg/day, course: 4b 4 days, 7a 7, 12a 8 days
  Change in Smoking Pattern per cig.: Less than 1/2; also recorded: Reduced to 3-4 puffs
[1]; [10]
  Cigarette Consumption per day at end: 0 cigarettes per day
  Percentage Reduction: 100%
[1]; [11]
  Cigarette Consumption per day at end: 0 cigarettes per day
  Percentage Reduction: 100%
[1]; non-habit smoker 13a, chewing gum, 1000 mg/day, 2 days
  Smoking during dose course (in words): Not able to finish cigarette
[1]; tablet form, subjects 10 and 11, retention in the mouth not ruled out
  effectiveness of systemic administration: partially effective
[1]; [12]
  Change in Smoking Pattern per cig.: Less than 3/4
  Cigarette Consumption per day at end: 17-18 cigarettes per day
  Percentage Reduction: 40-43%
[1]; [13]
  Change in Smoking Pattern per cig.: Reduced to 3-4 puffs
  Cigarette Consumption per day at end: 10-12 cigarettes per day
  Percentage Reduction: 70-75%
[2]; chewing gum over ten to fifteen minutes versus tablet
  threshold dose, chewing gum versus tablet: somewhat lower
[2]; single dose greater than 300 mg
  reaction to cigarettes: immediate overt negative reaction to cigarettes
[2]; single dose greater than 500 mg
  duration of substantially reduced level of smoking: a few hours to two days
[2]; single dose greater than 500 mg, substantially all individuals
  desire to smoke cigarettes: a definitive result of reduced desire to smoke cigarettes
[2]; single dose greater than 1,200 mg
  effect of dose greater than 1,200 mg: no addition advantage
[2]; single dose of less than 300 mg
  effect on smoking: no definitive effect
[2]; single dose up to about 1,200 mg
  effect of increasing dose: Increased effectiveness
[2]; single dose, some subjects
  physiological symptoms of nicotine withdrawal: For some subjects, physiological symptoms of nicotine withdrawal were noted
[3]; Day 1
  reduction in smoking level: 10%
[3]; Day 2
  reduction in smoking level: 5% and 15% and 10% and 30% and 20%
[3]; Day 3
  reduction in smoking level: 10% and 20% and 5% and 40% and 60% and 30% and 15% and 45%
[3]; Day 4
  reduction in smoking level: 40% and 50% and 10% and 65% and 5% and 75% and 70% and 30%
[3]; Day 5
  reduction in smoking level: 30% and 80% and 10% and 85% and 60% and 90% and 50% and 35% and 95%
[3]; Day 6
  reduction in smoking level: 60% and 95% and 20% and 15% and 50% and 70% and 25%
[3]; Day 7
  reduction in smoking level: 50% and 40% and 20% and 90% and 65% and 85% and 30% and 45%
[3]; Day 8
  reduction in smoking level: 70% and 55% and 40% and 75% and 15% and 90% and 50%
[3]; Day 9
  reduction in smoking level: 80% and 70% and 20% and 65% and 95% and 90%
[3]; Day 10
  reduction in smoking level: 85% and 90% and 30% and 70% and 80%
[3]; subject 10, after day 5, "beer tasted funny"
  discontinuation: Discontinued
[4]; compared with water
  solubility in alcoholic solution: somewhat more soluble
[4]; one gram, water at 100° C., read-out: water to dissolve one gram completely (converted)
  solubility: 167 mg/mL (≈ 1190 mM)
[5]
  hexobarbital-induced sleeping time: potentiating hexobarbital-induced sleeping time
[6]
  acute LD50: 910 mg per kg
